Assays:
Experiment in all cases: relative viability (nuclei count vs DMSO), 5 days (fraction); higher = more cells survive
MK-8033 + Decitabine = compound: Cn1cc(-c2cnc3ccc4ccc(CS(=O)(=O)NCc5ccccn5)cc4c(=O)c3c2)cn1 [MK-8033] + Nc1ncn([C@H]2C[C@H](O)[C@@H](CO)O2)c(=O)n1 [Decitabine] (partner 2 µM)
Method in brief: (§1)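 Relative viability divides the nuclei count in treated wells by that in vehicle wells. Lung cancer cell lines were seeded in 1536-well plates, dosed by pin tool the next day, and fixed and stained after 5 days in one step with final 0.05% Triton X-100, 1% formaldehyde and 1 ug/ml Hoechst. Dosing was a single drug or a fixed anchor-drug dose plus five library-drug doses (not always all listed) in √10 steps, and values are medians of duplicate plates imaged at 4×.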

Irinotecan + Tozasertib = compound: CCc1c2c(nc3ccc(OC(=O)N4CCC(N5CCCCC5)CC4)cc13)-c1cc3c(c(=O)n1C2)COC(=O)[C@]3(O)CC [Irinotecan] + Cc1cc(Nc2cc(N3CCN(C)CC3)nc(Sc3ccc(NC(=O)C4CC4)cc3)n2)n[nH]1 [Tozasertib] (partner 0.1 µM)
Method in brief: as §1

MK-8033 + Alpelisib = compound: Cn1cc(-c2cnc3ccc4ccc(CS(=O)(=O)NCc5ccccn5)cc4c(=O)c3c2)cn1 [MK-8033] + Cc1nc(NC(=O)N2CCC[C@H]2C(N)=O)sc1-c1ccnc(C(C)(C)C(F)(F)F)c1 [Alpelisib] (partner 2 µM)
Method in brief: as §1

MK-8033 + Palbociclib = compound: Cn1cc(-c2cnc3ccc4ccc(CS(=O)(=O)NCc5ccccn5)cc4c(=O)c3c2)cn1 [MK-8033] + CC(=O)c1c(C)c2cnc(Nc3ccc(N4CCNCC4)cn3)nc2n(C2CCCC2)c1=O [Palbociclib] (partner 0.5 µM)
Method in brief: as §1

Cell Line | relative viability (MK-8033 + Decitabine; first compound 0.02 µM) | relative viability (MK-8033 + Decitabine; first compound 0.06325 µM) | relative viability (MK-8033 + Decitabine; first compound 0.2 µM) | relative viability (MK-8033 + Decitabine; first compound 0.6325 µM) | relative viability (MK-8033 + Decitabine; first compound 2 µM) | relative viability (Irinotecan + Tozasertib; first compound 0.6325 µM) | relative viability (Irinotecan + Tozasertib; first compound 2 µM) | relative viability (Irinotecan + Tozasertib; first compound 6.325 µM) | relative viability (Irinotecan + Tozasertib; first compound 20 µM) | relative viability (MK-8033 + Alpelisib; first compound 0.02 µM) | relative viability (MK-8033 + Alpelisib; first compound 0.06325 µM) | relative viability (MK-8033 + Alpelisib; first compound 0.2 µM) | relative viability (MK-8033 + Alpelisib; first compound 0.6325 µM) | relative viability (MK-8033 + Alpelisib; first compound 2 µM) | relative viability (MK-8033 + Palbociclib; first compound 0.02 µM) | relative viability (MK-8033 + Palbociclib; first compound 0.06325 µM) | relative viability (MK-8033 + Palbociclib; first compound 0.2 µM) | relative viability (MK-8033 + Palbociclib; first compound 0.6325 µM) | relative viability (MK-8033 + Palbociclib; first compound 2 µM)
NCI-H1651 | 0.706 | 0.606 | 0.653 | 0.694 | 0.649 | 0.532 | 0.575 | 0.255 | 0.183 | 0.888 | 0.808 | 0.931 | 0.898 | 0.982 | 0.51 | 0.498 | 0.514 | 0.536 | 0.521
NCI-H1355 | 0.363 | 0.309 | 0.36 | 0.335 | 0.318 | – | 0.486 | 0.311 | 0.227 | 0.766 | 0.74 | 0.72 | 0.87 | 0.786 | 0.372 | 0.379 | 0.375 | 0.415 | 0.381
NCI-H1563 | – | – | – | – | – | – | – | – | – | 1.02 | 0.918 | 0.883 | 1.02 | 0.93 | – | – | – | – | –
NCI-H1650 | 0.445 | 0.429 | 0.422 | 0.452 | 0.403 | – | 0.423 | 0.366 | 0.211 | – | – | – | – | – | 0.363 | 0.296 | 0.324 | 0.336 | 0.336
HCC-78 | 0.657 | 0.728 | 0.645 | 0.559 | 0.692 | 0.411 | 0.356 | 0.21 | 0.0831 | 0.271 | 0.293 | 0.267 | – | 0.357 | 0.516 | 0.63 | 0.451 | 0.514 | 0.511
NCI-H1437 | 0.615 | 0.585 | 0.511 | 0.626 | 0.549 | 0.339 | 0.387 | 0.312 | 0.218 | 0.966 | 0.905 | 0.883 | 0.941 | 0.956 | 0.275 | 0.317 | 0.323 | 0.303 | 0.3
BEN | 0.805 | 0.702 | 0.655 | 0.71 | 0.761 | 0.378 | 0.499 | 0.447 | 0.34 | 0.914 | 0.89 | 1 | 1.08 | 1 | 0.445 | 0.512 | 0.435 | 0.484 | 0.461
LCLC-103H | 0.699 | 0.724 | 0.673 | 0.736 | 0.766 | 0.431 | 0.425 | 0.301 | 0.32 | 1.07 | 0.872 | 0.94 | 0.942 | 0.959 | 0.514 | 0.51 | 0.47 | 0.295 | 0.491
NCI-H1915 | 0.255 | 0.239 | 0.255 | 0.266 | 0.264 | 0.312 | 0.27 | 0.192 | 0.173 | 1.02 | 1 | 1.04 | 1.11 | 1.02 | 0.538 | 0.525 | 0.496 | 0.492 | 0.483
NCI-H2085 | 0.53 | 0.571 | 0.475 | 0.544 | 0.559 | 0.843 | 0.726 | 0.505 | 0.51 | 0.873 | 0.936 | 0.925 | 0.823 | 0.971 | 0.468 | 0.479 | 0.499 | 0.484 | 0.474
NCI-H23 | 0.282 | 0.332 | 0.3 | – | 0.299 | 0.24 | 0.256 | 0.235 | 0.218 | 0.737 | 0.639 | 0.679 | 0.668 | 0.633 | 0.463 | 0.576 | 0.406 | – | 0.413
EPLC-272H | 0.338 | 0.373 | 0.325 | 0.367 | 0.37 | 0.165 | 0.252 | 0.258 | 0.25 | 0.91 | – | 0.877 | 0.948 | 1.02 | 0.299 | 0.356 | 0.352 | 0.274 | 0.349
EBC-1 | – | – | – | – | – | – | – | – | – | 0.832 | 0.686 | 0.904 | 0.678 | 0.207 | – | – | – | – | –
SK-MES-1 | 0.355 | 0.362 | 0.4 | 0.407 | 0.499 | 0.659 | 0.473 | 0.248 | 0.151 | 0.927 | 0.811 | 0.89 | 0.936 | 0.96 | 0.333 | 0.299 | 0.305 | 0.359 | 0.309
A549 | 0.263 | 0.319 | 0.474 | 0.156 | 0.305 | – | – | – | – | 0.692 | 0.685 | 0.83 | 0.456 | 0.651 | – | – | – | – | –
NCI-H2126 | 0.593 | 0.561 | 0.565 | 0.568 | 0.593 | – | 0.813 | 0.46 | 0.206 | 0.749 | 0.731 | 0.763 | 0.772 | 0.702 | 0.336 | 0.37 | 0.346 | 0.353 | 0.311

From the supplement of paper PMC10307832
